Results: patent US20260306527A1, “PRMT INHIBITOR COMPOUNDS AND THE USES THEREOF” (Purdue Research Foundation, priority 2023, published 2026)

What was measured:
Assay type in all cases: biochemical
PRMT1 [1] = biological target: T1, PRMT1 (Homo sapiens, UniProt Q99873); assay: SAHH-coupled fluorescence assay, inhibition of PRMT1; conditions: for IC50: read-out: IC50[μM] | PRMT1
T1 construct: made in house
In short: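 PRMT1 (0.1 μM) was run with 10 μM AdoMet, 5 μM SAHH and 10 μM ThioGlo4 in 2.5 mM HEPES pH 7.0, 25 mM NaCl, 25 μM EDTA, 50 μM TCEP and 0.01% Triton X-100. Fluorescence (ex 400/em 465 nm) was monitored for 15 min. Assays were done in duplicate.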

PRMT8 [2] = biological target: T2, PRMT8 (Homo sapiens, UniProt Q9NR22); assay: radioactive assay (Reaction Biology Corp.), inhibition of PRMT8
Method: (§1) Next, the inhibition activity of the library was investigated for five PRMT members from type I PRMTs.
(§2) The PRMT 4, 6 and 8 methylation assays were performed by Reaction Biology corp.

PRMT3 [3] = biological target: PRMT3 (Homo sapiens, UniProt O60678); assay: SAHH-coupled fluorescence assay, inhibition of PRMT3; parameters: PRMT3 (residues 211-531) was cloned into the pET28a-MHL expression vector; tag of the pET28a-MHL vector (not described); made in house; host or cells: Escherichia coli BL21(DE3)
In short: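 Coupled SAHH/ThioGlo4 fluorescence read-out (ex 380 nm, em 505 nm) of PRMT3 (0.25 μM) methylation with 30 μM AdoMet and 5 μM SAHH. Buffer was 20 mM Tris pH 7.5 with 0.01% Triton X-100. Run in duplicate.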

PRMT4 [4] = biological target: T3, PRMT4 (Homo sapiens, UniProt Q86X55); assay: radioactive assay (Reaction Biology Corp.), inhibition of PRMT4
T3 sequence (Q86X55 1-608): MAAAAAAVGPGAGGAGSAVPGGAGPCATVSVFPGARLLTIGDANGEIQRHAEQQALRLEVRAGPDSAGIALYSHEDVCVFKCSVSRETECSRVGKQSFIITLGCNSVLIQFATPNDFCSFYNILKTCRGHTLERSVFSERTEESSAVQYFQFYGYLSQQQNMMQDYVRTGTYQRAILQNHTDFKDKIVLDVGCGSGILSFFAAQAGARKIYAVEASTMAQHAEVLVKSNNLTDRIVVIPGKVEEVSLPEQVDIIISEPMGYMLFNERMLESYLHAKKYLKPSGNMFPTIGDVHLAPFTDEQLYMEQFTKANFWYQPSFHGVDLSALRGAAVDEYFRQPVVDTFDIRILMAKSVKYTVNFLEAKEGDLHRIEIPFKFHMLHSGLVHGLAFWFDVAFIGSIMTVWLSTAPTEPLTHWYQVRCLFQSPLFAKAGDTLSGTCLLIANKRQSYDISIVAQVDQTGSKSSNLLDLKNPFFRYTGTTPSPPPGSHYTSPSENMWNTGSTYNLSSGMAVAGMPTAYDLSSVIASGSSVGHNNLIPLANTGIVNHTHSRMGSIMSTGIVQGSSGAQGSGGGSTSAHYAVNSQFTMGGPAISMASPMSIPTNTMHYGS
Method: as §1, §2

PRMT4 [5] = assay: as above
Method: as §1, §2

PRMT6 [6] = biological target: T4, PRMT6 (Homo sapiens, UniProt Q96LA8); assay: radioactive assay (Reaction Biology Corp.), inhibition of PRMT6; conditions: for PRMT6 inhibition: 10 μM
Method: as §1, §2

PRMT3 [7] = assay: SAHH-coupled fluorescence assay, inhibition of PRMT3
Method: A fluorescence-based SAHH-coupled assay was applied to study the inhibition activity of all synthesized compounds on PRMT 1 and 3.
(§3) The PRMT3 methylation assay was performed under the following conditions in a final well volume of 100 μL: 20 mM Tris (pH=7.5), 0.01% Triton X-100, 5 μM SAHH, 0.25 μM PRMT3, 30 μM AdoMet, and 15 μM ThioGlo4. […] Fluorescence was monitored on a BMG CLARIOstar microplate reader with excitation 380 nm and emission 505 nm. Data were processed by using GraphPad Prism software 8.0. All experiments were performed in duplicate.
as §1
as §3, with “8.0.” for “8.0. All experiments were performed in duplicate.”

PRMT8 [8] = biological target: T2, PRMT8; assay: selectivity of YD1113/YD1290 on PRMT panel, PRMT8
Method: (§4) The selectivity of compounds YD1113 and YD1290 on PRMTs were performed by Reaction Biology Corp.
(§5) Next, the selectivity of YD1113 was investigated on a panel of PRMTs at 10 μM.
(§6) After validating the benzyl urea moiety as an unconventional homocysteine mimic of SAH for PRMTs, it was hypothesized that incorporating the benzyl urea moiety into the original pan PRMT inhibitor II757 would build a potent bisubstrate inhibitor. […] To enable a stable tri-substitution, the sulfur atom with a nitrogen atom was replaced. YD1290 was synthesized following the reported methods 9, 15 and tested in a radioactivity assay for PRMTs (FIG. 6b).

PRMT3 [9] = assay: selectivity of YD1113/YD1290 on PRMT panel, PRMT3
Method: as §4, §5, §6

PRMT7 = assay: selectivity of YD1113 on PRMT panel, PRMT7
Method: as §4, §5

PRMT1 [10] = biological target: T1, PRMT1; assay: selectivity of YD1113/YD1290 on PRMT panel, PRMT1
Method: as §4, §5, §6

PRMT5 = PRMT5 (Homo sapiens, UniProt O14744); assay: selectivity of YD1113 on PRMT panel, PRMT5; conditions: read-out: IC50 (nM) | PRMT5
Method: as §4, §5

PRMT4 [11] = assay: selectivity of YD1113/YD1290 on PRMT panel, PRMT4
Method: as §4, §5, §6

PRMT6 [12] = biological target: T4, PRMT6; assay: selectivity of YD1113/YD1290 on PRMT panel, PRMT6
Method: as §4, §5, §6

Sequence of PRMT3 (Homo sapiens, UniProt O60678) (O60678 211-531): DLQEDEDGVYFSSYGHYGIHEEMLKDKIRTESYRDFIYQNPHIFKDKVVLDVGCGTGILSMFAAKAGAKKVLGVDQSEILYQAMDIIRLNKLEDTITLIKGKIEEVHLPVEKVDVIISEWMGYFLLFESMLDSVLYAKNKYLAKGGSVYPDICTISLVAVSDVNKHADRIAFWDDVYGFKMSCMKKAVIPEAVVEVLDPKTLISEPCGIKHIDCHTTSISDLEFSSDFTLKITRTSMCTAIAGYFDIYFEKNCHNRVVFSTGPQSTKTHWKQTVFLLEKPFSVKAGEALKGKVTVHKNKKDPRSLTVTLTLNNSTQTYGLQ
T2 sequence (Q9NR22 whole entry, species assumed): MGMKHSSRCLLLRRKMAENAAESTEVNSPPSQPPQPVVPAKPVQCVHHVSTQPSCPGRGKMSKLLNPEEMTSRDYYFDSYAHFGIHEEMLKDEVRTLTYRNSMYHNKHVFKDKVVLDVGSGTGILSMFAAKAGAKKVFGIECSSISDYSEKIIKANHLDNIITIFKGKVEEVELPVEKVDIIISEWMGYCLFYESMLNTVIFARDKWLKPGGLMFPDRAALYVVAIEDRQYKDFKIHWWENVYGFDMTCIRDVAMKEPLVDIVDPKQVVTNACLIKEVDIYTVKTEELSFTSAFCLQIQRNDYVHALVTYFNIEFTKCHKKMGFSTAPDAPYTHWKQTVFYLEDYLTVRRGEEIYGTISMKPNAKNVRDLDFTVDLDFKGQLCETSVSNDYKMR
T1 sequence (Q99873 whole entry, species assumed): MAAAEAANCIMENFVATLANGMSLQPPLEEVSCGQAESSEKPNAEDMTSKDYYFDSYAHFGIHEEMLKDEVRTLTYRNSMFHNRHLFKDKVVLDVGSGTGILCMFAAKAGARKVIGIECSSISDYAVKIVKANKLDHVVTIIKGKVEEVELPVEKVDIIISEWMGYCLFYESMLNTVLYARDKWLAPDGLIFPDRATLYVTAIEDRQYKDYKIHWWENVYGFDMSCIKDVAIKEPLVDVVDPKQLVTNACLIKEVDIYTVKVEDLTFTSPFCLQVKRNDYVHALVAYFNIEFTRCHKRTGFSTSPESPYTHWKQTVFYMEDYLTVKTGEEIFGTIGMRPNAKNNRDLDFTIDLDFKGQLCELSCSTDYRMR
T4 sequence (Q96LA8 whole entry, species assumed): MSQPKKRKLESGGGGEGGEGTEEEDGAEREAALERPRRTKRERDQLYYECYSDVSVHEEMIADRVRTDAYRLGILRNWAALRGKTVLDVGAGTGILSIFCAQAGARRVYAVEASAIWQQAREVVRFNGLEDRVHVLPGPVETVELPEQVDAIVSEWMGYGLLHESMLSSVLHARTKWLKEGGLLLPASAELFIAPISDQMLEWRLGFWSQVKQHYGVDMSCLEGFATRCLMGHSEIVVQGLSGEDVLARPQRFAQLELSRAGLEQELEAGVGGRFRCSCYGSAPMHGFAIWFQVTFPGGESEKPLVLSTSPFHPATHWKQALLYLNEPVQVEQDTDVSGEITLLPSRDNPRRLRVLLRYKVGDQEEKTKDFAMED
Sequence of PRMT5 (O14744 whole entry, species assumed): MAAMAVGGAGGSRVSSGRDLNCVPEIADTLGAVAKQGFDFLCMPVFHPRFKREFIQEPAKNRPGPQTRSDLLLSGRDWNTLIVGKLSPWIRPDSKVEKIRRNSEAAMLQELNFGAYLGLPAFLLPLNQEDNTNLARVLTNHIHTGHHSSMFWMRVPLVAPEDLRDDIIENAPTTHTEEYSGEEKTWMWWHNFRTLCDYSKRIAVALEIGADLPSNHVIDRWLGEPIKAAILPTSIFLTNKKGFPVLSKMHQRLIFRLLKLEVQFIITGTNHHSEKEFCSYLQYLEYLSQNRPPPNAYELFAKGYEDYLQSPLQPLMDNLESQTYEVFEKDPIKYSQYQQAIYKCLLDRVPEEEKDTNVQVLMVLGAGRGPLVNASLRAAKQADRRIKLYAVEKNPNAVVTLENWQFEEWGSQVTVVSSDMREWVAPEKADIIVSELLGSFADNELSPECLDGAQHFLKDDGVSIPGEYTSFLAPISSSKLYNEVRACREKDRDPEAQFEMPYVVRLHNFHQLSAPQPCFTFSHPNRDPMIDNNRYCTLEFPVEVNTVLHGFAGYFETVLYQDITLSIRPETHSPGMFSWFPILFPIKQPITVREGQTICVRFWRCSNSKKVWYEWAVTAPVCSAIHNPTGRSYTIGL
Sequence of PRMT5 (Q9BQA1 whole entry partner, species assumed): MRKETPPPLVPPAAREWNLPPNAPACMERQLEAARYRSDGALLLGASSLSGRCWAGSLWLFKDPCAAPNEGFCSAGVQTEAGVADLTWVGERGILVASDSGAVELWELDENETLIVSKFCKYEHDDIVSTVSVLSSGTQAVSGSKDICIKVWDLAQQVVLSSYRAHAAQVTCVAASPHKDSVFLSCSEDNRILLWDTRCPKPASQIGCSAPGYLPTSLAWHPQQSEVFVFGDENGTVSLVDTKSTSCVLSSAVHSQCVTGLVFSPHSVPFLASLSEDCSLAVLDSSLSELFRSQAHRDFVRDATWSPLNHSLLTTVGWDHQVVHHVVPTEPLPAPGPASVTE

SMILES	inhibition at 10 µM (PRMT1 [1])	inhibition at 10 µM (PRMT8 [2])	inhibition at 10 µM (PRMT3 [3])	inhibition at 10 µM (PRMT4 [4])	IC50 (PRMT4 [5])	inhibition at 10 µM (PRMT6 [6])	IC50 (PRMT3 [7]; read-out: IC50 [µM] | PRMT3)	further results
N=C(NCCCSC[C@H]1O[C@@H](n2cnc3c(NCC#Cc4ccccc4)ncnc32)[C@H](O)[C@@H]1O)Nc1cccc(Br)c1 [YD1-248]	–	–	–	–	–	–	–	PRMT1 inhibition (PRMT1 [1]): PRMT1 inhibitors; IC50 (PRMT8 [8]): 24 nM; IC50 (PRMT3 [9]): 2370 nM; IC50 (PRMT7): 5570 nM; IC50 (PRMT1 [10]): 3.35 nM; IC50 (PRMT5): 1380 nM; IC50 (PRMT4 [11]): 2760 nM; IC50 (PRMT6 [12]): 25 nM
N=C(NCCCSC[C@H]1O[C@@H](n2cnc3c(N)ncnc32)[C@H](O)[C@@H]1O)Nc1cccc(-c2ccc(F)cc2F)c1 [Compound 6k]	97%	99%	50%	100%	–	96%	–	IC50 (PRMT1 [1]): 0.33 ± 0.072 µM; IC50 (PRMT3 [7]; read-out: IC50[μM] | PRMT3): 6.6 ± 2.8 µM
N=C(NCCCSC[C@H]1O[C@@H](n2cnc3c(N)ncnc32)[C@H](O)[C@@H]1O)Nc1cccc(-c2ccc(F)c(O)c2)c1 [Compound 6l]	92%	99%	58%	100%	–	97%	–	IC50 (PRMT1 [1]): 0.17 ± 0.022 µM; IC50 (PRMT3 [7]; read-out: IC50[μM] | PRMT3): 5.5 ± 1 µM
N=C(NCCSC[C@H]1O[C@@H](n2cnc3c(N)ncnc32)[C@H](O)[C@@H]1O)Nc1cccc(I)c1 [Compound 5c]	95%	99%	38%	100%	–	98%	–	IC50 (PRMT1 [1]): 0.13 ± 0.006 µM; IC50 (PRMT3 [7]; read-out: IC50[μM] | PRMT3): 8.68 ± 2.9 µM
N=C(NCCCSC[C@H]1O[C@@H](n2cnc3c(N)ncnc32)[C@H](O)[C@@H]1O)Nc1cccc(-c2ccc(O)cc2)c1 [Compound 6e]	95%	98%	47%	100%	–	99%	–	IC50 (PRMT1 [1]): 0.23 ± 0.013 µM; IC50 (PRMT3 [7]; read-out: IC50[μM] | PRMT3): 8.6 ± 0.58 µM

Further lines, with some results ahead:

inhibition at 10 µM (PRMT1 [1])	inhibition at 10 µM (PRMT8 [2])	inhibition at 10 µM (PRMT3 [3])	inhibition at 10 µM (PRMT4 [4])	IC50 (PRMT4 [5])	inhibition at 10 µM (PRMT6 [6])	IC50 (PRMT3 [7]; read-out: IC50 [µM] | PRMT3)	SMILES	further results
13%	5%	1%	88%	470 ± 120 nM	2%	81 ± 17 µM	Nc1ncnc2c1ncn2[C@@H]1O[C@H](CSCCNC(=O)Nc2cccc3ccccc23)[C@@H](O)[C@H]1O [Compound 7l, 1-(2-((((2S,3S,4R,5R)-5-(6-amino-9H-purin-9-yl)-3,4-dihydroxytetrahydrofuran-2-yl)methyl)thio)ethyl)-3-(naphthalen-1-yl)urea]	fold reduction of PRMT3 inhibition vs 1h (PRMT3 [3]; vs phenyl (1h)): over 40 fold
28%	39%	24%	97%	49000 ± 5700 nM	65%	–	Nc1ncnc2c1ncn2[C@@H]1O[C@H](CSCCCNCc2cccc(-c3cncnc3)c2)[C@@H](O)[C@H]1O [Compound 10s]	–
5%	36%	13%	98%	9300 ± 1100 nM	31%	–	Nc1ncnc2c1ncn2[C@@H]1O[C@H](CSCCNCc2cccc(-c3cncnc3)c2)[C@@H](O)[C@H]1O [Compound 10g]	–
12%	-13%	25%	96%	21 ± 2.8 nM	-11%	–	Nc1ncnc2c1ncn2[C@@H]1O[C@H](CSCCNC(=O)NCc2ccccc2Br)[C@@H](O)[C@H]1O [Compound 7h]	–
7%	-1%	30%	67%	–	2%	22 ± 2.9 µM	Nc1ncnc2c1ncn2[C@@H]1O[C@H](CSCCNC(=O)Nc2ccc(Cl)cc2)[C@@H](O)[C@H]1O [Compound 7k, 1-(2-((((2S,3S,4R,5R)-5-(6-amino-9H-purin-9-yl)-3,4-dihydroxytetrahydrofuran-2-yl)methyl)thio)ethyl)-3-(4-chlorophenyl)urea]	fold reduction of PRMT3 inhibition vs 1i (PRMT3 [3]; vs 1i): 10 fold
6%	8%	62%	95%	270 ± 60 nM	25%	5.9 ± 1.4 µM	Nc1ncnc2c1ncn2[C@@H]1O[C@H](CSCCNC(=O)NCc2ccc(F)cc2)[C@@H](O)[C@H]1O [Compound 7d, 1-(2-((((2S,3S,4R,5R)-5-(6-amino-9H-purin-9-yl)-3,4-dihydroxytetrahydrofuran-2-yl)methyl)thio)ethyl)-3-(4-fluorobenzyl)urea]	fold reduction of PRMT3 inhibition vs YD1113 (PRMT3 [3]): over 10 fold; PRMT6 inhibition (PRMT6 [6]): inactive to PRMT6
7%	12%	13%	76%	3600 ± 420 nM	67%	70 ± 11 µM	Nc1ncnc2c1ncn2[C@@H]1O[C@H](CSCCCNC(=O)NCc2ccccc2)[C@@H](O)[C@H]1O [Compound 7p, 1-(3-((((2S,3S,4R,5R)-5-(6-amino-9H-purin-9-yl)-3,4-dihydroxytetrahydrofuran-2-yl)methyl)thio)propyl)-3-benzylurea]	inhibition at 70 µM (PRMT3 [3]; 70 μM): 50%
9%	12%	86%	84%	–	28%	1.9 ± 0.12 µM	Nc1ncnc2c1ncn2[C@@H]1O[C@H](CSCCNC(=O)Nc2ccccc2)[C@@H](O)[C@H]1O [Compound 7f, 1-(2-((((2S,3S,4R,5R)-5-(6-amino-9H-purin-9-yl)-3,4-dihydroxytetrahydrofuran-2-yl)methyl)thio)ethyl)-3-phenylurea]	fold reduction of PRMT3 inhibition vs YD1113 (PRMT3 [3]): 4 fold; PRMT6 inhibition (PRMT6 [6]): inactive to PRMT6
14%	44%	1%	100%	1200 ± 180 nM	46%	–	Nc1ncnc2c1ncn2[C@@H]1O[C@H](CSCCNCc2cccc(-c3ccoc3)c2)[C@@H](O)[C@H]1O [Compound 10d]	–
